Read-outs that look alike come from different tables or passages of the source.
Legend:
[1] = test system: Actinomyces naeslundii ATCC 12104; assay: MIC, anaerobic agar dilution (CLSI); assay type: cell-based; settings: ATCC12104, 35° C., 42-48 hours
[2] = test system: Anaerococcus (Anaerococcus(prevotii)) ATCC 9321; assay: MIC, anaerobic agar dilution (CLSI); assay type: cell-based; settings: 35° C., 42-48 hours
Atopobium vaginae BAA-55 = assay: MIC, anaerobic agar dilution (CLSI); assay type: cell-based; settings: Fannyhessea vaginae, BAA55
[3] = test system: Bacteroides fragilis (QC) ATCC 25285; assay: MIC, anaerobic agar dilution (CLSI); assay type: cell-based; settings: ATCC25285, 35° C., 42-48 hours
[4] = test system: Bacteroides fragilis (MET^R) MMX 3387; assay: MIC, anaerobic agar dilution (CLSI); assay type: cell-based
[5] = test system: Bacteroides thetaiotaomicron (MET^R) MMX 3409; assay: microbe, parasite or virus in culture; assay type: cell-based
[6] = test system: Bacteroides gracilis ATCC 33236; assay: MIC, anaerobic agar dilution (CLSI); assay type: cell-based; settings: Campylobacter gracilis, ATCC33236
[7] = test system: Bacteroides uniformis MMX 1277; assay: MIC, anaerobic agar dilution (CLSI); assay type: cell-based; settings: MMX1277
[8] = test system: Bacteroides vulgatus MMX 8348; assay: MIC, anaerobic agar dilution (CLSI); assay type: cell-based; settings: Phocaeicola vulgatus, MMX8348, 35° C., 42-48 hours
[9] = test system: Bacteroides vulgatus (MET^R) MMX 3490; assay: MIC, anaerobic agar dilution (CLSI); assay type: cell-based; settings: Phocaeicola vulgatus
[10] = test system: Bacteroides ovatus (MET^R) MMX 3504; assay: MIC, anaerobic agar dilution (CLSI); assay type: cell-based; settings: 35° C., 42-48 hours
[11] = test system: Bifidobacterium (breve) ATCC 15698; assay: MIC, anaerobic agar dilution (CLSI); assay type: cell-based; settings: ATCC15698, 35° C., 42-48 hours
[12] = test system: Bifidobacterium longum ATCC 15707; assay: MIC, anaerobic agar dilution (CLSI); assay type: cell-based; settings: ATCC15707, 35° C., 42-48 hours
[13] = test system: Clostridium sporogenes ATCC 19404; assay: MIC, anaerobic agar dilution (CLSI); assay type: cell-based; settings: ATCC19404, 35° C., 42-48 hours
[14] = test system: Clostridium perfringens (MET^R) MMX 3521; assay: microbe, parasite or virus in culture; assay type: cell-based
[15] = test system: Eubacterium (rectale) ATCC 33656; assay: MIC, anaerobic agar dilution (CLSI); assay type: cell-based; settings: Agathobacter rectalis, ATCC33656, 35° C., 42-48 hours
[16] = test system: Fusobacterium nucleatum ATCC 10953; assay: MIC, anaerobic agar dilution (CLSI); assay type: cell-based; settings: ATCC10953, 35° C., 42-48 hours
[17] = test system: Fusobacterium nucleatum ATCC 25586; assay: MIC, anaerobic agar dilution (CLSI); assay type: cell-based; settings: ATCC25586, 35° C., 42-48 hours
[18] = test system: Gardnerella vaginalis ATCC 14018; assay: MIC, anaerobic agar dilution (CLSI); assay type: cell-based; settings: ATCC14018, 35° C., 42-48 hours
[19] = test system: Gardnerella vaginalis ATCC 49145; assay: MIC, anaerobic agar dilution (CLSI); assay type: cell-based; settings: ATCC49145, 35° C., 42-48 hours
[20] = test system: Lactobacillus crispatus ATCC 33820; assay: MIC, anaerobic agar dilution (CLSI); assay type: cell-based; settings: ATCC33820
[21] = test system: Lactobacillus gasseri ATCC 33323; assay: MIC, anaerobic agar dilution (CLSI); assay type: cell-based; settings: ATCC33323
[22] = test system: Lactobacillus jensenii ATCC 25258; assay: MIC, anaerobic agar dilution (CLSI); assay type: cell-based; settings: ATCC25258
[23] = test system: Mobiluncus (curtisii subsp. curtisii) ATCC 35241; assay: MIC, anaerobic agar dilution (CLSI); assay type: cell-based; settings: ATCC35241, 35° C., 42-48 hours
[24] = test system: Mobiluncus (mulieris) ATCC 35243; assay: MIC, anaerobic agar dilution (CLSI); assay type: cell-based; settings: ATCC35243, 35° C., 42-48 hours
[25] = test system: Peptococcus (niger) ATCC 27731; assay: MIC, anaerobic agar dilution (CLSI); assay type: cell-based; settings: ATCC27731, 35° C., 42-48 hours
[26] = test system: Peptoniphilus asaccharolyticus ATCC 29743; assay: MIC, anaerobic agar dilution (CLSI); assay type: cell-based; settings: ATCC29743, 35° C., 42-48 hours
[27] = test system: Peptostreptococcus (magnus) ATCC 14956; assay: MIC, anaerobic agar dilution (CLSI); assay type: cell-based; settings: Finegoldia magna, ATCC14956, 35° C., 42-48 hours
[28] = test system: Peptostreptococcus anaerobius ATCC 27337; assay: MIC, anaerobic agar dilution (CLSI); assay type: cell-based; settings: ATCC27337, 35° C., 42-48 hours
[29] = test system: Prevotella asaccharolytica (MET^R) MMX 3552; assay: MIC, anaerobic agar dilution (CLSI); assay type: cell-based; settings: 35° C., 42-48 hours
[30] = test system: Prevotella bivia ATCC 29303; assay: MIC, anaerobic agar dilution (CLSI); assay type: cell-based; settings: ATCC29303, 35° C., 42-48 hours
[31] = test system: Prevotella bivia MMX 3450; assay: MIC, anaerobic agar dilution (CLSI); assay type: cell-based; settings: MMX3450, 35° C., 42-48 hours
[32] = test system: Prevotella bivia (MET^R) MMX 3454; assay: MIC, anaerobic agar dilution (CLSI); assay type: cell-based; settings: 35° C., 42-48 hours
[33] = test system: Prevotella disiens MMX 3457; assay: MIC, anaerobic agar dilution (CLSI); assay type: cell-based; settings: MMX3457, 35° C., 42-48 hours
[34] = test system: Prevotella disiens MMX 3446; assay: MIC, anaerobic agar dilution (CLSI); assay type: cell-based; settings: MMX3446, 35° C., 42-48 hours
[35] = test system: Prevotella intermedia ATCC 25611; assay: MIC, anaerobic agar dilution (CLSI); assay type: cell-based; settings: ATCC25611, 35° C., 42-48 hours
[36] = test system: Treponema denticola ATCC 35405; assay: MIC, anaerobic agar dilution (CLSI); assay type: cell-based; settings: ATCC35405, 35° C., 42-48 hours
[37] = test system: Veionella parvula ATCC 17745; assay: MIC, anaerobic agar dilution (CLSI); assay type: cell-based; settings: 35° C., 42-48 hours
Gardnerella = assay: MIC, agar dilution, Gardnerella; assay type: cell-based; settings: Gardnerella as major BV bacteria
[38] = test system: Bacteroides fragilis (QC) ATCC 25285; settings: range printed in parentheses; cited from earlier work
Bacterial Vaginosis (BV) = settings: within 3 months; cited from earlier work
Escherichia coli = settings: several bacteria such as Escherichia coli; U.S. Pat. No. 7,678,791 B2; cited from earlier work
[39] = Atopobium vaginae BAA-55, anaerobic, 35° C., 42-48 hours, read-out: MIC
[40] = Bacteroides fragilis (MET^R) MMX 3387, anaerobic, 35° C., 42-48 hours, read-out: MIC
[41] = Bacteroides gracilis ATCC 33236, anaerobic, 35° C., 42-48 hours, read-out: MIC
[42] = Bacteroides uniformis MMX 1277, anaerobic, 35° C., 42-48 hours, read-out: MIC
[43] = Bacteroides vulgatus (MET^R) MMX 3490, anaerobic, 35° C., 42-48 hours, read-out: MIC
[44] = Lactobacillus crispatus ATCC 33820, anaerobic, 35° C., 42-48 hours, read-out: MIC
[45] = Lactobacillus gasseri ATCC 33323, anaerobic, 35° C., 42-48 hours, read-out: MIC
[46] = Lactobacillus jensenii ATCC 25258, anaerobic, 35° C., 42-48 hours, read-out: MIC

Cc1ncc([N+](=O)[O-])n1CCO [Metronidazole]
up to 58%: recurrence rate (Bacterial Vaginosis (BV))
0.25 µg/mL: MIC [28]
4 µg/mL: MIC [18] | MIC [19] | MIC (Gardnerella)
1 µg/mL: MIC [3] | MIC [8] | MIC [27] | MIC [29] | MIC [30] | MIC [31] | MIC [35]
8 µg/mL: MIC [11] | MIC [12]
128 µg/mL: MIC (Atopobium vaginae BAA-55) | MIC [9]
0.25 to 1 µg/mL: MIC range in parentheses (QC strain reference range) [38]
> 256 µg/mL: MIC ([4]; Bacteroides fragilis) | MIC [6] | MIC ([7]; Bacteroides uniformis) | MIC [14] | MIC ([20]; Lactobacillus crispatus) | MIC ([21]; Lactobacillus gasseri) | MIC ([22]; Lactobacillus jensenii)
256 µg/mL: MIC [1]
2 µg/mL: MIC [2] | MIC ([5]; Bacteroides thetaiotaomicron) | MIC [10] | MIC [17] | MIC [23] | MIC [37]
0.5 µg/mL: MIC [15] | MIC [24] | MIC [25] | MIC [26] | MIC [32] | MIC [33] | MIC [34] | MIC [36]
0.06 µg/mL: MIC [13] | MIC [16]

CO[C@H]1/C=C/O[C@@]2(C)Oc3c(C)c(O)c4c(O)c(c(/C=N/N5CCN(C)CC5)c(O)c4c3C2=O)NC(=O)/C(C)=C\C=C\[C@H](C)[C@H](O)[C@@H](C)[C@@H](O)[C@@H](C)[C@H](OC(C)=O)[C@@H]1C [Rifampicin]
4 µg/mL: MIC [37]
2 µg/mL: MIC [20, 44]
0.015 µg/mL: MIC [15]
1 µg/mL: MIC [10] | MIC [13] | MIC [14] | MIC [16] | MIC [27]
0.06 µg/mL: MIC [31]
0.03 µg/mL: MIC [1] | MIC [2]
0.12 µg/mL: MIC [34] | MIC [35]
16 µg/mL: MIC [6, 41]
0.5 µg/mL: MIC ([5]; Bacteroides thetaiotaomicron) | MIC [7, 42] | MIC [12] | MIC [17] | MIC [18] | MIC [19] | MIC [22, 46] | MIC [30] | MIC [33] | MIC (Gardnerella)
0.25 µg/mL: MIC (Atopobium vaginae BAA-55; [39]) | MIC [3] | MIC [4, 40] | MIC [8] | MIC [9, 43] | MIC [11] | MIC [21, 45]
0.004 µg/mL: MIC [23] | MIC [24] | MIC [25] | MIC [26] | MIC [28] | MIC [29] | MIC [32] | MIC [36]

CO[C@H]1/C=C/O[C@@]2(C)Oc3c(C)c(O)c4c(c3C2=O)C2=NC3(CCN(CCn5c([N+](=O)[O-])cnc5C)CC3)NC2=C(NC(=O)/C(C)=C\C=C\[C@H](C)[C@H](O)[C@@H](C)[C@@H](O)[C@@H](C)[C@H](OC(C)=O)[C@@H]1C)C4=O [Compound I, 4-deoxy-3,4-[2-spiro-[2-(2-methyl-5-nitro-imidazole-1-yl)ethyl]-piperidine-4-yl]-(1-hydrogen)-imidazo-(2,5-dihydro) rifamycin S]
0.015 µg/mL: MIC [4, 40] | MIC [11] | MIC [12] | MIC [13] | MIC [21, 45] | MIC [30] | MIC [32] | MIC [34]
0.004 µg/mL: MIC [18] | MIC [19] | MIC (Gardnerella)
0.002 µg/mL: MIC [23] | MIC [28] | MIC [36]
2 µg/mL: MIC [14] | MIC [37]
0.0005 µg/mL: MIC [2] | MIC [15] | MIC [25] | MIC [27] | MIC [31] | MIC [35]
4 µg/mL: MIC [20, 44]
has antimicrobial activity: antimicrobial activity (Escherichia coli)
0.03 µg/mL: MIC (Atopobium vaginae BAA-55; [39]) | MIC [3] | MIC ([5]; Bacteroides thetaiotaomicron (MET^R) MMX 3409, anaerobic, 35° C., 42-48 hours, read-out: MIC) | MIC [7, 42] | MIC [8] | MIC [9, 43]
0.12 µg/mL: MIC [10] | MIC [16]
0.001 µg/mL: MIC [1] | MIC [17] | MIC [24]
0.008 µg/mL: MIC [22, 46] | MIC [26] | MIC [29] | MIC [33]
0.5 µg/mL: MIC [6, 41]

Reference: patent US20200093807A1, “NEW USE OF RIFAMYCIN-NITROIMIDAZOLE CONJUGATE MOLECULE” (TenNor Therapeutics Limited, priority 2017, published 2020)
